Laboratory results published in patent US11814367B2, “Inhibitors of glycogen synthase 1 (GYS1) and methods of use thereof” (Maze Therapeutics, Inc., priority 2021, dated 2023).

Tests used:
[1] = molecular target: hGYS1 enzyme (recombinant hGYS1/GN1 protein) (Homo sapiens (Human), UniProt P13807); test: GYS1 coupled enzyme assay (PK/LDH); format: biochemical; details: hGYS1/GN1 50 nM, UDP-Glucose 0.8 mM, G6P 1 mM; geometric mean of at least 2 runs
[2] = test system: hGYS1 enzyme / glycogen synthesis in HeLa cells; test: GYS1 cell based assay (glycogen synthesis, Glucose-glo); parameters: species or system human; details: Homo sapiens, HeLa, 24 h, 24 h incubation, 20 mM glucose, geometric mean of at least 2 runs
How it was run: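 HeLa cells starved 24 h in medium containing only 1× Glutamax were plated onto compound in medium with 20 mM glucose (1% DMSO final) for 24 h, 37 °C, 5% CO2. Acid lysates were Tris-quenched, glucoamylase-digested (pH 5.3, 1 h, 37 °C) and read by Glucose-glo luminescence. IC50 came from Hill fits, as geometric mean of ≥2 runs.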

[3] = molecular target: hGYS2 enzyme (recombinant hGYS2/GN1 protein) (Homo sapiens (Human), UniProt P54840); test: GYS2 coupled enzyme assay (PK/LDH); format: biochemical; details: geometric mean of at least 2 assay runs on separate days, read-out: Avg_IC50
How it was run: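 Continuous PK/LDH-coupled readout of NADH loss at 340 nm over 10 min, with 200 nM hGYS2/GN1 and 2 mM each of UDP-glucose, glucose-6-phosphate and PEP, in 50 mM Tris pH 7.5 with 0.2% glycogen and 2.5% DMSO. Slopes were normalized to controls and IC50s fit to a Hill curve from duplicates.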

Chain of hGYS1 enzyme (recombinant hGYS1/GN1 protein) (P13807 whole entry): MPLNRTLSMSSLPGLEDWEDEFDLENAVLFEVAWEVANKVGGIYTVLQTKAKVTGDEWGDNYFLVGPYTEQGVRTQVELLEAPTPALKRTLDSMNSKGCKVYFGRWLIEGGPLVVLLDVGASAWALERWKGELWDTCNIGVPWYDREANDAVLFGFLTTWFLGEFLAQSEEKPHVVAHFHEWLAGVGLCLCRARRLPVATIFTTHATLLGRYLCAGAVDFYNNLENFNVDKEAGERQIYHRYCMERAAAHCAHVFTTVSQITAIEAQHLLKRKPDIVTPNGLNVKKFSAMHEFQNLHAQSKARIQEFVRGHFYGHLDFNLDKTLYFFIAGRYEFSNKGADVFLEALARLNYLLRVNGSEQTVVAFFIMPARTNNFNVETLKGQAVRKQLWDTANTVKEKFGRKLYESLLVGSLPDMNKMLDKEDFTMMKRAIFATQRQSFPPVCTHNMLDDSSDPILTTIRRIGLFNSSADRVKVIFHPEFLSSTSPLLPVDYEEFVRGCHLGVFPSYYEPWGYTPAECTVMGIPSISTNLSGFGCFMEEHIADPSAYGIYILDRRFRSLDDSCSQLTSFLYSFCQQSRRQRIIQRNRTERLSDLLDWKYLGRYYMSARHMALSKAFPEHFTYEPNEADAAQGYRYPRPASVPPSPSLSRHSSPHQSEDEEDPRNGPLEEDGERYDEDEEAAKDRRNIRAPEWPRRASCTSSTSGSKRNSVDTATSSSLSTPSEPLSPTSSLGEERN
Chain of hGYS1 enzyme (recombinant hGYS1/GN1 protein) (P46976 whole entry partner): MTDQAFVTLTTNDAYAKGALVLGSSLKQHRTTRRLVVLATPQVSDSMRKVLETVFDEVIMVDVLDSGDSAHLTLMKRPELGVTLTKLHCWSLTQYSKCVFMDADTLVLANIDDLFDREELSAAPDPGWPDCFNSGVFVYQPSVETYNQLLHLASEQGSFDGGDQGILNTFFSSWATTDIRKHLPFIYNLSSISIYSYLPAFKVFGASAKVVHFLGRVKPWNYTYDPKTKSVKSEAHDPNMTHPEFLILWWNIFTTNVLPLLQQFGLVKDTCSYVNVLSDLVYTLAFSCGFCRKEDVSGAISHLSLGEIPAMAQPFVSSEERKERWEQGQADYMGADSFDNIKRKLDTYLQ
Chain of hGYS2 enzyme (recombinant hGYS2/GN1 protein) (P54840 whole entry): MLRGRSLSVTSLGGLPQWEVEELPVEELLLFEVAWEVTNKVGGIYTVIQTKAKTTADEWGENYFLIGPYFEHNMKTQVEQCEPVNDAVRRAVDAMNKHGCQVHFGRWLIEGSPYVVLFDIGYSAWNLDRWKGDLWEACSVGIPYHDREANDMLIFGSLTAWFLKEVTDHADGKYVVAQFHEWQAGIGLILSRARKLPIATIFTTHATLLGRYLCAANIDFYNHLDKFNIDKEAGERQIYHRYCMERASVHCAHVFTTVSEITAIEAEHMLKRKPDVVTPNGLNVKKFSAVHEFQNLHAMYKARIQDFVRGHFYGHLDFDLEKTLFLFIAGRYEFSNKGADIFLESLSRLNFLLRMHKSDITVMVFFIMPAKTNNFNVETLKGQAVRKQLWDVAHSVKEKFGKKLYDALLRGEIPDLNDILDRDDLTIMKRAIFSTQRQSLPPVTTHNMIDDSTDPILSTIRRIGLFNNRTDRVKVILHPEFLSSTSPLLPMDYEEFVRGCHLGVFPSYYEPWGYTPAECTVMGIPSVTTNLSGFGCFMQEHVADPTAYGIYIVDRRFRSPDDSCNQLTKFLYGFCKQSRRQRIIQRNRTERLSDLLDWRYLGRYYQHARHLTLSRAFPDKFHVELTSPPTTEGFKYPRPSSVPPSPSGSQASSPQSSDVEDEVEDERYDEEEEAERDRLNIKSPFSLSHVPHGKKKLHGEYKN
Chain of hGYS2 enzyme (recombinant hGYS2/GN1 protein) (P46976 whole entry partner): as the sequence (P46976 whole entry partner) above

| IC50 [1] [µM] | IC50 [2] [µM] | IC50 [3] [µM] | SMILES |
| --- | --- | --- | --- |
| 0.006 | 0.16 | > 100 | O=C(N[C@@H](c1ccccc1)c1ccc(C2CC2)c(F)n1)[C@@H]1C[C@@H](F)CN1C(=O)Cn1cnc2ccccc21 [Compound 294, (2S,4R)-1-[2-(1H-1,3-benzodiazol-1-yl)acetyl]-N-[(S)-(5-cyclopropyl-6-fluoropyridin-2-yl)(phenyl)methyl]-4-fluoropyrrolidine-2-carboxamide] |
| 0.013 | 0.59 | > 100 | Cc1cn(CC(=O)N2C[C@H](F)C[C@H]2C(=O)N[C@@H](c2ccccc2)c2ccc(C3CC3)c(F)n2)c(=O)[nH]c1=O [Compound 295, (2S,4R)-N-[(S)-(5-cyclopropyl-6-fluoropyridin-2-yl)(phenyl)methyl]-4-fluoro-1-[2-(5-methyl-2,4-dioxo-1,2,3,4-tetrahydropyrimidin-1-yl)acetyl]pyrrolidine-2-carboxamide] |
| 0.087 | 4.44 | > 100 | O=C(N[C@@H](c1ccccc1)c1ccc(C2CC2)c(F)n1)[C@@H]1C[C@@H](F)CN1C(=O)Cn1cnnc1 [Compound 296, (2S,4R)-N-[(S)-(5-cyclopropyl-6-fluoropyridin-2-yl)(phenyl)methyl]-4-fluoro-1-[2-(4H-1,2,4-triazol-4-yl)acetyl]pyrrolidine-2-carboxamide] |
| 0.012 | 0.26 | > 100 | CN(C)c1cnnn1CC(=O)N1C[C@H](F)C[C@H]1C(=O)N[C@@H](c1ccccc1)c1ccc(C2CC2)c(F)n1 [Compound 298, (2S,4R)-N-[(S)-(5-cyclopropyl-6-fluoropyridin-2-yl)(phenyl)methyl]-1-{2-[5-(dimethylamino)-1H-1,2,3-triazol-1-yl]acetyl}-4-fluoropyrrolidine-2-carboxamide] |
| 0.022 | 0.42 | > 100 | CN(C)c1cn(CC(=O)N2C[C@H](F)C[C@H]2C(=O)N[C@@H](c2ccccc2)c2ccc(C3CC3)c(F)n2)nn1 [Compound 299, (2S,4R)-N-[(S)-(5-cyclopropyl-6-fluoropyridin-2-yl)(phenyl)methyl]-1-{2-[4-(dimethylamino)-1H-1,2,3-triazol-1-yl]acetyl}-4-fluoropyrrolidine-2-carboxamide] |
| 0.046 | 0.9 | > 100 | CNC(=O)NCC(=O)N1C[C@H](F)C[C@H]1C(=O)N[C@@H](c1ccccc1)c1ccc(C2CC2)c(F)n1 [Compound 301, (2S,4R)-N-[(S)-(5-cyclopropyl-6-fluoropyridin-2-yl)(phenyl)methyl]-4-fluoro-1-{2-[(methylcarbamoyl)amino]acetyl}pyrrolidine-2-carboxamide] |
| 0.036 | 1.52 | > 100 | Cn1nc(CC(=O)N2C[C@H](F)C[C@H]2C(=O)N[C@@H](c2ccccc2)c2ccc(C3CC3)c(F)n2)[nH]c1=O [Compound 303, (2S,4R)-N-[(S)-(5-cyclopropyl-6-fluoropyridin-2-yl)(phenyl)methyl]-4-fluoro-1-[2-(1-methyl-5-oxo-4,5-dihydro-1H-1,2,4-triazol-3-yl)acetyl]pyrrolidine-2-carboxamide] |
| 0.073 | 2.33 | > 100 | Cn1c(CC(=O)N2C[C@H](F)C[C@H]2C(=O)N[C@@H](c2ccccc2)c2ccc(C3CC3)c(F)n2)n[nH]c1=O [Compound 304, (2S,4R)-N-[(S)-(5-cyclopropyl-6-fluoropyridin-2-yl)(phenyl)methyl]-4-fluoro-1-[2-(4-methyl-5-oxo-4,5-dihydro-1H-1,2,4-triazol-3-yl)acetyl]pyrrolidine-2-carboxamide] |
| 0.078 | 0.81 | > 100 | Cn1nc(CC(=O)N2C[C@H](F)C[C@H]2C(=O)N[C@@H](c2ccccc2)c2ccc(C3CC3)c(F)n2)oc1=O [Compound 306, (2S,4R)-N-[(S)-(5-cyclopropyl-6-fluoropyridin-2-yl)(phenyl)methyl]-4-fluoro-1-[2-(4-methyl-5-oxo-4,5-dihydro-1,3,4-oxadiazol-2-yl)acetyl]pyrrolidine-2-carboxamide] |
| 0.039 | 0.86 | > 100 | Cc1cnc(CC(=O)N2C[C@H](F)C[C@H]2C(=O)N[C@@H](c2ccccc2)c2ccc(C3CC3)c(F)n2)o1 [Compound 313, (2S,4R)-N-[(S)-(5-cyclopropyl-6-fluoropyridin-2-yl)(phenyl)methyl]-4-fluoro-1-[2-(5-methyl-1,3-oxazol-2-yl)acetyl]pyrrolidine-2-carboxamide] |

The remaining lines, values behind:

| SMILES | IC50 [1] [µM] | IC50 [2] [µM] | IC50 [3] [µM] |
| --- | --- | --- | --- |
| CC(C)c1ccc([C@@H](NC(=O)[C@@H]2C[C@@H](F)CN2C(=O)CNC(=O)N2CCN(C)CC2)c2ccccc2)nc1 [Compound 283, N-{2-[(2S,4R)-4-fluoro-2-{[(S)-phenyl[5-(propan-2-yl)pyridin-2-yl]methyl]carbamoyl}pyrrolidin-1-yl]-2-oxoethyl}-4-methylpiperazine-1-carboxamide] | 0.058 | 2.4 | > 100 |
| CC(C)c1ccc([C@@H](NC(=O)[C@@H]2C[C@@H](F)CN2C(=O)Cc2n[nH]c(=O)[nH]2)c2ccccc2)nc1 [Compound 284, (2S,4R)-4-fluoro-1-[2-(5-oxo-4,5-dihydro-1H-1,2,4-triazol-3-yl)acetyl]-N-[(S)-phenyl[5-(propan-2-yl)pyridin-2-yl]methyl]pyrrolidine-2-carboxamide] | 0.09 | 5.19 | > 100 |
| CC(C)c1ccc([C@@H](NC(=O)[C@@H]2C[C@@H](F)CN2C(=O)CCc2n[nH]c(=O)[nH]2)c2ccccc2)nc1 [Compound 287, (2S,4R)-4-fluoro-1-[3-(5-oxo-4,5-dihydro-1H-1,2,4-triazol-3-yl)propanoyl]-N-[(S)-phenyl[5-(propan-2-yl)pyridin-2-yl]methyl]pyrrolidine-2-carboxamide] | 0.124 | 11.8 | > 100 |
| O=C(N[C@@H](c1ccccc1)c1ccc(C2CC2)c(F)n1)[C@@H]1C[C@@H](F)CN1C(=O)Cn1nnnc1C(F)F [Compound 293, (2S,4R)-N-((S)-(5-cyclopropl-6-fluoropyridin-2-yl)(phenyl)methyl)-1-(2-(5-(difluoromethyl)-1H-tetrazol-1-yl)acetyl)-4-fluoropyrrolidine-2-carboxamide] | 0.038 | 0.66 | > 100 |
| CN(C)C(=O)NCC(=O)N1C[C@H](F)C[C@H]1C(=O)N[C@@H](c1ccccc1)c1ccc(C2CC2)c(F)n1 [Compound 300, (2S,4R)-N-[(S)-(5-cyclopropyl-6-fluoropyridin-2-yl)(phenyl)methyl]-1-{2-[(dimethylcarbamoyl)amino]acetyl}-4-fluoropyrrolidine-2-carboxamide] | 0.028 | 0.57 | > 100 |
| O=C(N[C@@H](c1ccccc1)c1ccc(C2CC2)c(F)n1)[C@@H]1C[C@@H](F)CN1C(=O)Cc1[nH]nnc1C(F)(F)F [Compound 307, (2S,4R)-N-[(S)-(5-cyclopropyl-6-fluoropyridin-2-yl)(phenyl)methyl]-4-fluoro-1-{2-[4-(trifluoromethyl)-1H-1,2,3-triazol-5-yl]acetyl}pyrrolidine-2-carboxamide] | 0.01 | 0.5 | > 100 |
| Cc1nccc(NCC(=O)N2C[C@H](F)C[C@H]2C(=O)N[C@@H](c2ccccc2)c2ccc(C3CC3)c(F)n2)n1 [Compound 308, (2S,4R)-N-[(S)-(5-cyclopropyl-6-fluoropyridin-2-yl)(phenyl)methyl]-4-fluoro-1-{2-[(2-methylpyrimidin-4-yl)amino]acetyl}pyrrolidine-2-carboxamide] | 0.011 | 0.33 | > 100 |
| O=C(N[C@@H](c1ccccc1)c1ccc(C2CC2)c(F)n1)[C@@H]1C[C@@H](F)CN1C(=O)CNc1ncco1 [Compound 309, (2S,4R)-N-[(S)-(5-cyclopropyl-6-fluoropyridin-2-yl)(phenyl)methyl]-4-fluoro-1-{2-[(1,3-oxazol-2-yl)amino]acetyl}pyrrolidine-2-carboxamide] | 0.055 | 0.97 | > 100 |
| C[C@H](NC(=O)N(C)C)C(=O)N1C[C@H](F)C[C@H]1C(=O)N[C@@H](c1ccccc1)c1ccc(C2CC2)c(F)n1 [Compound 310, (2S,4R)-N-[(S)-(5-cyclopropyl-6-fluoropyridin-2-yl)(phenyl)methyl]-1-[(2S)-2-[(dimethylcarbamoyl)amino]propanoyl]-4-fluoropyrrolidine-2-carboxamide] | 0.075 | 1.29 | > 100 |
| C[C@@H](NC(=O)N(C)C)C(=O)N1C[C@H](F)C[C@H]1C(=O)N[C@@H](c1ccccc1)c1ccc(C2CC2)c(F)n1 [Compound 311, (2S,4R)-N-[(S)-(5-cyclopropyl-6-fluoropyridin-2-yl)(phenyl)methyl]-1-[(2R)-2-[(dimethylcarbamoyl)amino]propanoyl]-4-fluoropyrrolidine-2-carboxamide] | 0.127 | 2.1 | > 100 |
| O=C(N[C@@H](c1ccccc1)c1ccc(C2CC2)c(F)n1)[C@@H]1C[C@@H](F)CN1C(=O)Cc1ncco1 [Compound 312, (2S,4R)-N-[(S)-(5-cyclopropyl-6-fluoropyridin-2-yl)(phenyl)methyl]-4-fluoro-1-[2-(1,3-oxazol-2-yl)acetyl]pyrrolidine-2-carboxamide] | 0.097 | 0.83 | > 100 |
